Where two headings read alike, the source gives them in different places.
Key:
[1] = system: cellular H3K36me2 level in thyroid carcinoma cell line CGTH-W-1 (NSD2 E1099K); assay: H3K36me2 cellular ELISA assay in CGTH-W-1 line; assay type: cell-based; settings: Homo sapiens, CGTH-W-1, 72 h, read-out: H3K36me2 ELISA in CGTH-W-1
In short: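 After 72 h compound treatment of NSD2 E1099K-mutant CGTH-W-1 cells, H3K36me2 and total H3 were quantified by ELISA with chemiluminescent read-out. A parallel-seeded plate gave cell viability by CellTiter-Glo.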

NSD2 [1-1365] = NSD2 [1-1365] (Homo sapiens (Human), UniProt O96028); assay: LC-MS/MS-based NSD2 enzymatic assay (SAH production); assay type: biochemical; settings: read-out: NSD2 IC50
In short: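 SAH formed was measured by LC-MS/MS using d4-SAH as internal standard and an SAH calibration curve. Compounds were preincubated 20 min with NSD2 [1-1365] and SAM; mouse-liver nucleosome then started a 90 min room-temperature reaction (8 nM enzyme, 1 μM SAM, 400 nM nucleosome final, pH 8.0), stopped with TFA.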

[2] = system: cellular H3K36me2 level in multiple myeloma cell line KMS11 (t(4;14)+); assay: H3K36me2 cellular ELISA assay in KMS11-Par line; assay type: cell-based; settings: Homo sapiens, KMS-11, ELISA, read-out: H3K36me2 ELISA in KMS11-Par
In short: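 After 72 h compound exposure, HCl-extracted histones from KMS11 (t(4;14)+) cells were probed by ELISA for H3K36me2 against total H3 with a chemiluminescence read-out. Cells were plated at 1,250/well in Opti-MEM plus B-27 and N2 the day before. A parallel CellTiter-Glo plate tracked viability.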

[3] = NSD2 biochemical activity, class symbols
[4] = KMS11-Par line (t(4;14)+), 72 hours treatment

Chain of NSD2 [1-1365] (O96028 whole entry): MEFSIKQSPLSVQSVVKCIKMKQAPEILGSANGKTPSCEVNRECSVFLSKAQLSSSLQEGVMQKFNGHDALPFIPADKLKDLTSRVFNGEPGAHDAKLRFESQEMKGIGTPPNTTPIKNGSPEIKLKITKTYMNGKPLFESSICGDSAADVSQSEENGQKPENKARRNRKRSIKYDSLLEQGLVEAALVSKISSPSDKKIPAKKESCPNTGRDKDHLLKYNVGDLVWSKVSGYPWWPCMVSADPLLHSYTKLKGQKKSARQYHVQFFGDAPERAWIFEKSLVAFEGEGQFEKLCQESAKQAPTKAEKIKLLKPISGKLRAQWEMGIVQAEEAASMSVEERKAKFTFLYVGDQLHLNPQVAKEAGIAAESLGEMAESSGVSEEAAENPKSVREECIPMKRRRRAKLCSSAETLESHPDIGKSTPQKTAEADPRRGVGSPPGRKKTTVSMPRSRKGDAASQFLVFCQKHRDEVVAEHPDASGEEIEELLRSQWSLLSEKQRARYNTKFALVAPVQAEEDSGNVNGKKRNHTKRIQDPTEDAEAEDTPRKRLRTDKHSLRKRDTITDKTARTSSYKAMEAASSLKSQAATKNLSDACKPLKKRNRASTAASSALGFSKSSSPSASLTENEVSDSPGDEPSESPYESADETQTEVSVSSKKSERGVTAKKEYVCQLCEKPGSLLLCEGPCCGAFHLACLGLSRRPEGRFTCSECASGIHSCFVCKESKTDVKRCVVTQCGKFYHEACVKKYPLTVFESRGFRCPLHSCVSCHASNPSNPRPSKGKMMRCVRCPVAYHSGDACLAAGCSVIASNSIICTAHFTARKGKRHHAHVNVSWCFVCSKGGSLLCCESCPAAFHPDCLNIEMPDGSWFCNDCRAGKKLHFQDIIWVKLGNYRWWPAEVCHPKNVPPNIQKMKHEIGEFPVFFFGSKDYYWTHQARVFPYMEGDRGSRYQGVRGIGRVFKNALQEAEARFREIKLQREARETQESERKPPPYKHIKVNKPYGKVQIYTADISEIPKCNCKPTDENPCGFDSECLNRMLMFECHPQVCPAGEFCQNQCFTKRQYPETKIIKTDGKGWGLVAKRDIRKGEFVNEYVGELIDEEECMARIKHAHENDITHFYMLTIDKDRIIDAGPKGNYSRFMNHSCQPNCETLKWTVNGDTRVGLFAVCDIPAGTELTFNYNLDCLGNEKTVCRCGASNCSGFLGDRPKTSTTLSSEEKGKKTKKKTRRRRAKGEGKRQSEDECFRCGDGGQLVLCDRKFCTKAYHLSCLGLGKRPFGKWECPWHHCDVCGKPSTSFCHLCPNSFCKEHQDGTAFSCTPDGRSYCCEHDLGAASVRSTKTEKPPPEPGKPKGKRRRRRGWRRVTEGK

SMILES	IC50 [1] [nM]	IC50 (NSD2 [1-1365]) [nM]	IC50 ([2]; KMS11-Par line, 72 hours) [nM]	IC50 (NSD2 [1-1365]; [3]) [nM]	IC50 [2, 4] [nM]
Nc1ncnc2c1ncn2Cc1cc(-c2ccc(F)c(Cl)n2)ncc1N1CCC[C@](N)([C@@H](O)C(F)F)C1 [Example 176, (R)-1-((R)-3-amino-1-(4-((6-amino-9H-purin-9-yl)methyl)-6′-chloro-5′-fluoro-[2,2′-bipyridin]-5-yl)piperidin-3-yl)-2,2-difluoroethan-1-ol]	953	10 to 1000	8970	–	–
Nc1ncnc2c1ncn2Cc1cc(-c2ccc(F)c(F)c2)ncc1N1CCC[C@](N)([C@@H](F)CO)C1 [Example 285, (R)-2-((R)-3-amino-1-(4-((6-amino-9H-purin-9-yl)methyl)-6-(3,4-difluorophenyl)pyridin-3-yl)piperidin-3-yl)-2-fluoroethan-1-ol]	43.7	1 to 10	885	–	–
Nc1ncnc2c1ncn2Cc1cc(-c2ccc(C(F)F)cc2F)ncc1N1CCC[C@](N)([C@@H](O)C(F)F)C1 [Example 132, (R)-1-((R)-3-amino-1-(4-((6-amino-9H-purin-9-yl)methyl)-6-(4-(difluoromethyl)-2-fluorophenyl)pyridin-3-yl)piperidin-3-yl)-2,2-difluoroethan-1-ol]	264	–	–	1 to 10	1230
Cc1ccc(-c2cc(Cn3cnc4c(N)ncnc43)c(N3CCC[C@](N)([C@@H](O)C(F)F)C3)cn2)c(C)c1 [Example 126, (R)-1-((R)-3-amino-1-(4-((6-amino-9H-purin-9-yl)methyl)-6-(2,4-dimethylphenyl)pyridin-3-yl)piperidin-3-yl)-2,2-difluoroethan-1-ol]	469	–	–	1 to 10	1110
Nc1ncnc2c1ncn2Cc1cc(-c2cc(F)c(F)cc2F)ncc1N1CCC[C@](N)([C@@H](O)C(F)F)C1 [Example 156, (R)-1-((R)-3-amino-1-(4-((6-amino-9H-purin-9-yl)methyl)-6-(2,4,5-trifluorophenyl)pyridin-3-yl)piperidin-3-yl)-2,2-difluoroethan-1-ol]	41	–	–	1 to 10	574
COc1c(F)cc(-c2cc(Cn3cnc4c(N)ncnc43)c(N3CCC[C@](N)(C(O)C(F)F)C3)cn2)cc1F (stereo in doubt) [Example 164, (R)-1-((R)-3-amino-1-(4-((6-amino-9H-purin-9-yl)methyl)-6-(3,5-difluoro-4-methoxyphenyl)pyridin-3-yl)piperidin-3-yl)-2,2-difluoroethan-1-ol]	130	–	–	1 to 10	1060
C[C@@H](F)c1cccc([C@@]2(N)CCCN(c3cnc(-c4ccc(F)cc4)cc3Cn3cnc4c(N)ncnc43)C2)n1 [Example 212, 9-((5-((R)-3-amino-3-(6-((R)-1-fluoroethyl)pyridin-2-yl)piperidin-1-yl)-2-(4-fluorophenyl)pyridin-4-yl)methyl)-9H-purin-6-amine]	132	10 to 1000	289	–	–
COc1ccc(-c2cc(Cn3cnc4c(N)ncnc43)c(N3CCC[C@](N)([C@H](C)O)C3)cn2)cc1F [Example 92, (S)-1-((R)-3-amino-1-(4-((6-amino-9H-purin-9-yl)methyl)-6-(3-fluoro-4-methoxyphenyl)pyridin-3-yl)piperidin-3-yl)ethan-1-ol]	2110	–	–	1 to 10	4890
COc1ccc(-c2cc(Cn3cnc4c(N)ncnc43)c(N3CCC[C@](N)(c4cccc(Cl)n4)C3)cn2)nc1F [Example 224, (R)-9-((5-(3-amino-3-(6-chloropyridin-2-yl)piperidin-1-yl)-6′-fluoro-5′-methoxy-[2,2′-bipyridin]-4-yl)methyl)-9H-purin-6-amine]	348	1 to 10	1710	–	–
C[C@H]1COC[C@@H]([C@@]2(N)CCCN(c3cnc(-c4ccc(F)c(F)c4)cc3Cn3cnc4c(N)ncnc43)C2)O1 [Example 288, 9-((5-((R)-3-amino-3-((2R,6S)-6-methyl-1,4-dioxan-2-yl)piperidin-1-yl)-2-(3,4-difluorophenyl)pyridin-4-yl)methyl)-9H-purin-6-amine]	2390	10 to 1000	5720	–	–
COc1ccc(-c2cc(Cn3cnc4c(N)ncnc43)c(N3CCC[C@](N)(C(F)F)C3)cn2)cc1F [Example 305, (R)-9-((5-(3-amino-3-(difluoromethyl)piperidin-1-yl)-2-(3-fluoro-4-methoxyphenyl)pyridin-4-yl)methyl)-9H-purin-6-amine]	3400	10 to 1000	4800	–	–
Nc1ncnc2c1ncn2Cc1cc(-c2ccc(Cl)cc2F)ncc1N1CCC[C@](N)([C@@H](O)C(F)F)C1 [Example 133, (R)-1-((R)-3-amino-1-(4-((6-amino-9H-purin-9-yl)methyl)-6-(4-chloro-2-fluorophenyl)pyridin-3-yl)piperidin-3-yl)-2,2-difluoroethan-1-ol]	177	–	–	10 to 1000	1610
COc1ccc(-c2cc(Cn3cnc4c(N)ncnc43)c(N3CCC[C@](N)(c4ccc(F)c(C)n4)C3)cn2)cc1 [Example 241, (R)-9-((5-(3-amino-3-(5-fluoro-6-methylpyridin-2-yl)piperidin-1-yl)-2-(4-methoxyphenyl)pyridin-4-yl)methyl)-9H-purin-6-amine]	1190	10 to 1000	4080	–	–
Cc1cc(C(F)F)ccc1-c1cc(Cn2cnc3c(N)ncnc32)c(N2CCC[C@](N)([C@@H](O)C(F)F)C2)cn1 [Example 115, (R)-1-((R)-3-amino-1-(4-((6-amino-9H-purin-9-yl)methyl)-6-(4-(difluoromethyl)-2-methylphenyl)pyridin-3-yl)piperidin-3-yl)-2,2-difluoroethan-1-ol]	88	–	–	1 to 10	927
Nc1ncnc2c1ncn2Cc1cc(-c2cc(F)c(F)cc2F)ncc1N1CCC[C@](N)([C@@H](F)CO)C1 [Example 286, (R)-2-((R)-3-amino-1-(4-((6-amino-9H-purin-9-yl)methyl)-6-(2,4,5-trifluorophenyl)pyridin-3-yl)piperidin-3-yl)-2-fluoroethan-1-ol]	5.9	1 to 10	655	–	–
Nc1ncnc2c1ncn2Cc1cc(-c2ccc(F)c(F)c2)ncc1N1CCC[C@](N)(c2cccc(CF)n2)C1 [Example 226, (R)-9-((5-(3-amino-3-(6-(fluoromethyl)pyridin-2-yl)piperidin-1-yl)-2-(3,4-difluorophenyl)pyridin-4-yl)methyl)-9H-purin-6-amine]	66.8	1 to 10	169	–	–
Nc1ncnc2c1ncn2Cc1cc(C2CCCCC2)ncc1N1CCC[C@](N)([C@H](O)C(F)F)C1 [Example 145, (S)-1-((R)-3-amino-1-(4-((6-amino-9H-purin-9-yl)methyl)-6-cyclohexylpyridin-3-yl)piperidin-3-yl)-2,2-difluoroethan-1-ol]	990	–	–	10 to 1000	8110
CC(C)C(C)C(=O)C1(N)CCCN(c2cnc(-c3ccc(F)c(F)c3)cc2Cn2cnc3c(N)ncnc32)C1 (stereo not drawn) [Example 89, 1-(3-amino-1-(4-((6-amino-9H-purin-9-yl)methyl)-6-(3,4-difluorophenyl)pyridin-3-yl)piperidin-3-yl)-2,3-dimethylbutan-1-one]	245	–	–	10 to 1000	684
COc1cc(F)c(-c2cc(Cn3cnc4c(N)ncnc43)c(N3CCC[C@](N)([C@@H](O)C(F)F)C3)cn2)cc1F [Example 160, (R)-1-((R)-3-amino-1-(4-((6-amino-9H-purin-9-yl)methyl)-6-(2,5-difluoro-4-methoxyphenyl)pyridin-3-yl)piperidin-3-yl)-2,2-difluoroethan-1-ol]	35	–	–	1 to 10	434
Cc1cc([C@@]2(N)CCCN(c3cnc(-c4ccc(F)c(F)c4)cc3Cn3cnc4c(N)ncnc43)C2)no1 [Example 284, (R)-9-((5-(3-amino-3-(5-methylisoxazol-3-yl)piperidin-1-yl)-2-(3,4-difluorophenyl)pyridin-4-yl)methyl)-9H-purin-6-amine]	111	1 to 10	254	–	–
COc1cc(F)c(-c2cc(Cn3cnc4c(N)ncnc43)c(N3CCC[C@](N)([C@H](O)C(F)F)C3)cn2)cc1F [Example 161, (S)-1-((R)-3-amino-1-(4-((6-amino-9H-purin-9-yl)methyl)-6-(2,5-difluoro-4-methoxyphenyl)pyridin-3-yl)piperidin-3-yl)-2,2-difluoroethan-1-ol]	73	–	–	1 to 10	502
COc1ccc(Cl)nc1[C@@]1(N)CCCN(c2cnc(-c3ccc(F)c(F)c3)cc2Cn2cnc3c(N)ncnc32)C1 [Example 230, (R)-9-((5-(3-amino-3-(6-chloro-3-methoxypyridin-2-yl)piperidin-1-yl)-2-(3,4-difluorophenyl)pyridin-4-yl)methyl)-9H-purin-6-amine]	1650	10 to 1000	9980	–	–
